Reference: patent publication US20100041691A1, “PHARMACEUTICAL COMPOSITIONS COMPRISING COMBINATIONS OF AN AMPA/KAINATE ANTAGONISTIC COMPOUND AND AN INHIBITOR OF A MULTIDRUG RESISTANCE PROTEIN” (NeuroSearch A/S, priority 2006, published 2010)
Where two headings read alike, the source gives them in different places.

Tests used:
[1] = test system: tonic seizures induced by 26 mA corneal stimulation; conditions: Compound A i.v. 60 minutes before electroshock, female NMRI mice
Text: After administration of vehicle or test substance female NMRI mice were stimulated with 26 mA for 0.3 seconds, using corneal stimulation (Rodent Shocker, Hugo Sachs Electronic, Germany). In presence of tonic seizure the mice was labeled 0% protection and if no tonic seizure was detected the mice was labeled 100% protection. Results were plotted as a function of logarithmic dose and fitted to a sigmoid-dose response (with variable slope (GraphPad Prism, ver. 4) and used to estimate the dose that would give a 50% protection from seizures (N=6/group).
Vehicle (5% chremophor) was dosed p.o.

[2] = 10 mg/kg i.v. with Verapamil I.C.V. versus Compound A only; mice; 5-60 minutes
Protocol: 16 NMRI-mice were allocated into 4 groups. The animals were anesthetised in 1.5% Isuflurane and 20% O2. […] At different time point (5 minutes, 15 minutes, 30 minutes and 60 minutes) after dosing the animals were killed by decapitation and blood and brain were collected. The EDTA stabilised blood was centrifugation at 4000 rpm for 20 minutes at 4° C. Plasma and brain samples were stored at −20° C. pending analysis.
Plasma and brain samples were analysed using LC-MS/MS (Quattro Ultimo Platinum with Acquility solvent and sample manager, Waters) in positive electrospray 10 ionisation and multiple reaction monitoring mode. The analytical column was a UPLC Acquility BEH C18 (1.7 μm) 1.0×50 mm (Waters) with gradient elution at a 0.13 ml/min flow rate. The initial mobile phase was 20% methanol/80% formic acid changed to 90% methanol/10% formic acid over a time period of 1.7 min.
Samples were centrifuged for 25 minutes at 5° C., 14000 rpm and 3 μl of the supernatants were injected onto the LC-column.
Brain tissue (0.1 g) was weighed out on top of a tube containing 0.8 ml bead (1.0 mm Zirconia from BioSpec Products). […]
Samples were quantified based on standard curves (linear, 1/×weighting), prepared in plasma and brain tissue respectively.

[3] = test system: P-gp; conditions: inhibition of P-gp in phenytoin-treated chronic epileptic rats; cited from earlier work

Row | Compound | ED50, protection against tonic seizures ([1]; pretreatment with Tariquidar 24 mg/kg p.o. 120 minutes before) [mg/kg] | ED50, protection against tonic seizures ([1]; with vehicle (5% chremophor p.o.)) [mg/kg] | brain exposure of Compound A [2] | seizure control [3]
1 | CN1CCc2c(-c3ccc(S(=O)(=O)N(C)C)cc3)cc3c(c2C1)NC(=O)C3=NOC(CCO)C(=O)O (stereo not shown) [Compound A, 8-Methyl-5-(4-(N,N-dimethyl-sulfamoyl)phenyl)-6,7,8,9-tetrahydro-1H-pyrrolo[3,2h]-isoqinoline-2,3-dione-3-O-(4-hydroxybutyric acid-2-yl)oxime] | 24 | 31.5 | increase in brain exposure | 
2 | COc1cc2c(cc1OC)CN(CCc1ccc(NC(=O)c3cc(OC)c(OC)cc3NC(=O)c3cnc4ccccc4c3)cc1)CC2 [Tariquidar] |  |  |  | improves seizure control
